Laboratory results published in the supplement of paper PMC10307832.

Tests used:
Assay in all cases: relative viability (nuclei count vs DMSO), 5 days (fraction); higher = more cells survive
[1] = system: 201T
How it was run: (§1)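 A single step with final 0.05% Triton X-100, 1% formaldehyde and 1 ug/ml Hoechst fixed the cells and stained nuclei 5 days after treatment. Lung cancer cell lines in 1536-well plates had been treated by pin tool the day after seeding with one drug alone or a fixed anchor-drug dose plus five library-drug doses (not always all listed) in √10 steps, and nuclei were counted on 4× images. Relative viability is the ratio of nuclei in treated wells to nuclei in vehicle wells, taken as the median of duplicate plates.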

[2] = system: BEN
How it was run: as §1

[3] = system: CAL-12T
How it was run: as §1

[4] = system: COR-L 105
How it was run: as §1

[5] = system: H3255
How it was run: as §1

[6] = system: HARA
How it was run: as §1

[7] = system: HCC-15
How it was run: as §1

[8] = system: HCC-827
How it was run: as §1

[9] = system: LC-2-ad
How it was run: as §1

[10] = system: LK-2
How it was run: as §1

[11] = system: LU99A
How it was run: as §1

[12] = system: LXF-289
How it was run: as §1

[13] = system: NCI-H1437
How it was run: as §1

[14] = system: NCI-H1651
How it was run: as §1

[15] = system: NCI-H1792
How it was run: as §1

[16] = system: NCI-H2085
How it was run: as §1

[17] = system: NCI-H2228
How it was run: as §1

[18] = system: NCI-H23
How it was run: as §1

[19] = system: NCI-H2405
How it was run: as §1

[20] = system: NCI-H322M
How it was run: as §1

[21] = system: RERF-LC-KJ
How it was run: as §1

[22] = system: UMC-11
How it was run: as §1

O=c1[nH]c2ccccc2n1C1CCN(CCCC(c2ccc(F)cc2)c2ccc(F)cc2)CC1 [Pimozide] + CC1(C)CCC(c2ccc(Cl)cc2)=C(CN2CCN(c3ccc(C(=O)NS(=O)(=O)c4ccc(N[C@H](CCN5CCOCC5)CSc5ccccc5)c(S(=O)(=O)C(F)(F)F)c4)cc3)CC2)C1 [Navitoclax] (partner 0.5 µM)
relative viability ([1]; first compound 0.08 µM): 1.19 | relative viability ([1]; first compound 0.253 µM): 1.25 | relative viability ([1]; first compound 0.8 µM): 1.19 | relative viability ([1]; first compound 2.53 µM): 1.18 | relative viability ([1]; first compound 8 µM): 1.15 | relative viability ([2]; first compound 0.08 µM): 0.0678 | relative viability ([2]; first compound 0.253 µM): 0.06 | relative viability ([2]; first compound 0.8 µM): 0.0809 | relative viability ([2]; first compound 2.53 µM): 0.0665 | relative viability ([2]; first compound 8 µM): 0.0584 | relative viability ([3]; first compound 0.08 µM): 1.35 | relative viability ([3]; first compound 0.253 µM): 1.23 | relative viability ([3]; first compound 0.8 µM): 1.23 | relative viability ([3]; first compound 2.53 µM): 0.977 | relative viability ([3]; first compound 8 µM): 1.08 | relative viability ([4]; first compound 0.253 µM): 0.601 | relative viability ([4]; first compound 0.8 µM): 0.618 | relative viability ([4]; first compound 2.53 µM): 0.816 | relative viability ([4]; first compound 8 µM): 0.645 | relative viability ([5]; first compound 0.253 µM): 0.555 | relative viability ([5]; first compound 0.8 µM): 0.549 | relative viability ([5]; first compound 2.53 µM): 0.551 | relative viability ([5]; first compound 8 µM): 0.506 | relative viability ([6]; first compound 0.08 µM): 1.11 | relative viability ([6]; first compound 0.253 µM): 1.18 | relative viability ([6]; first compound 0.8 µM): 1.1 | relative viability ([6]; first compound 2.53 µM): 1.12 | relative viability ([6]; first compound 8 µM): 1.14 | relative viability ([7]; first compound 0.08 µM): 0.797 | relative viability ([7]; first compound 0.253 µM): 0.724 | relative viability ([7]; first compound 0.8 µM): 0.66 | relative viability ([7]; first compound 2.53 µM): 0.636 | relative viability ([7]; first compound 8 µM): 0.621 | relative viability ([8]; first compound 0.253 µM): 1.03 | relative viability ([8]; first compound 0.8 µM): 0.897 | relative viability ([8]; first compound 2.53 µM): 0.999 | relative viability ([8]; first compound 8 µM): 0.981 | relative viability ([9]; first compound 0.08 µM): 0.498 | relative viability ([9]; first compound 0.253 µM): 0.509 | relative viability ([9]; first compound 0.8 µM): 0.286 | relative viability ([9]; first compound 2.53 µM): 0.421 | relative viability ([9]; first compound 8 µM): 0.392 | relative viability ([10]; first compound 0.08 µM): 0.818 | relative viability ([10]; first compound 0.253 µM): 0.724 | relative viability ([10]; first compound 0.8 µM): 0.811 | relative viability ([10]; first compound 2.53 µM): 0.721 | relative viability ([10]; first compound 8 µM): 1.05 | relative viability ([11]; first compound 0.08 µM): 0.794 | relative viability ([11]; first compound 0.253 µM): 0.772 | relative viability ([11]; first compound 0.8 µM): 0.716 | relative viability ([11]; first compound 2.53 µM): 0.875 | relative viability ([11]; first compound 8 µM): 0.806 | relative viability ([12]; first compound 0.08 µM): 0.9 | relative viability ([12]; first compound 0.253 µM): 0.93 | relative viability ([12]; first compound 0.8 µM): 0.91 | relative viability ([12]; first compound 2.53 µM): 0.896 | relative viability ([12]; first compound 8 µM): 0.84 | relative viability ([13]; first compound 0.08 µM): 1.07 | relative viability ([13]; first compound 0.253 µM): 1.06 | relative viability ([13]; first compound 0.8 µM): 1.06 | relative viability ([13]; first compound 2.53 µM): 0.993 | relative viability ([13]; first compound 8 µM): 0.81 | relative viability ([14]; first compound 0.08 µM): 0.953 | relative viability ([14]; first compound 0.253 µM): 1.06 | relative viability ([14]; first compound 0.8 µM): 1.07 | relative viability ([14]; first compound 2.53 µM): 1.11 | relative viability ([14]; first compound 8 µM): 0.992 | relative viability ([15]; first compound 0.08 µM): 0.647 | relative viability ([15]; first compound 0.253 µM): 0.629 | relative viability ([15]; first compound 0.8 µM): 0.619 | relative viability ([15]; first compound 2.53 µM): 0.599 | relative viability ([15]; first compound 8 µM): 0.649 | relative viability ([16]; first compound 0.08 µM): 1.15 | relative viability ([16]; first compound 0.253 µM): 1.15 | relative viability ([16]; first compound 0.8 µM): 1.11 | relative viability ([16]; first compound 2.53 µM): 1.04 | relative viability ([16]; first compound 8 µM): 1.06 | relative viability ([17]; first compound 0.08 µM): 0.758 | relative viability ([17]; first compound 0.253 µM): 0.715 | relative viability ([17]; first compound 0.8 µM): 0.845 | relative viability ([17]; first compound 2.53 µM): 0.616 | relative viability ([17]; first compound 8 µM): 0.614 | relative viability ([18]; first compound 0.08 µM): 0.882 | relative viability ([18]; first compound 0.253 µM): 0.807 | relative viability ([18]; first compound 0.8 µM): 0.732 | relative viability ([18]; first compound 2.53 µM): 0.844 | relative viability ([18]; first compound 8 µM): 0.801 | relative viability ([19]; first compound 0.08 µM): 0.795 | relative viability ([19]; first compound 0.253 µM): 0.716 | relative viability ([19]; first compound 0.8 µM): 0.89 | relative viability ([19]; first compound 2.53 µM): 0.801 | relative viability ([19]; first compound 8 µM): 0.637 | relative viability ([20]; first compound 0.253 µM): 1.21 | relative viability ([20]; first compound 0.8 µM): 1.14 | relative viability ([20]; first compound 2.53 µM): 1.21 | relative viability ([20]; first compound 8 µM): 1.11 | relative viability ([21]; first compound 0.08 µM): 0.913 | relative viability ([21]; first compound 0.253 µM): 0.855 | relative viability ([21]; first compound 0.8 µM): 0.885 | relative viability ([21]; first compound 2.53 µM): 1.04 | relative viability ([21]; first compound 8 µM): 0.92 | relative viability ([22]; first compound 0.08 µM): 0.33 | relative viability ([22]; first compound 0.253 µM): 0.318 | relative viability ([22]; first compound 0.8 µM): 0.293 | relative viability ([22]; first compound 2.53 µM): 0.286 | relative viability ([22]; first compound 8 µM): 0.239
